Results on 30 compounds are retold here after patent US6821967B2, “Substituted piperazine derivatives, the preparation thereof and their use as medicaments” (Boehringer Ingelheim Pharma KG, priority 1999, dated 2004).

Compound `O=C(NCc1ccc(F)cc1)C1(CCCCN2CCN(c3ccc4ccccc4n3)CC2)c2ccccc2-c2ccccc21` [Example 53, 9-[4-(4-quinolin-2-yl-piperazin-1-yl)-butyl]-9H-fluorene-9-carboxylic acid-4-fluoro-benzylamide] came in with a melting point of 58 °C.
As for `O=C(NCc1ccc(F)cc1)C1(CCCCN2CCN(c3ccc4c(Cl)cccc4n3)CC2)c2ccccc2-c2ccccc21` [Example 54, 9-{4-[4-(5-chloro-quinolin-2-yl)-piperazin-1-yl]-butyl}-9H-fluorene-9-carboxylic acid-4-fluoro-benzylamide], the melting point is 140 °C.
As for `O=C(NCc1ccc(F)cc1)C1(CCCCN2CCN(c3ccc4cccc(Cl)c4n3)CC2)c2ccccc2-c2ccccc21` [Example 55, 9-{4-[4-(8-chloro-quinolin-2-yl)-piperazin-1-yl]-butyl}-9H-fluorene-9-carboxylic acid-4-fluoro-benzylamide], the figure is 66 °C; as for `O=C(NCc1ccc(F)cc1)C1(CCCCN2CCN(c3cnc4ccccc4n3)CC2)c2ccccc2-c2ccccc21` [Example 57, 9-[4-(4-quinoxalin-2-yl-piperazin-1-yl)-butyl]-9H-fluorene-9-carboxylic acid-4-fluoro-benzylamide], 160 °C.
`O=C(NCc1ccc(F)cc1)C1(CCCCN2CCN(c3ncc4ccccc4n3)CC2)c2ccccc2-c2ccccc21` [Example 58, 9-[4-(4-quinazolin-2-yl-piperazin-1-yl)-butyl]-9H-fluorene-9-carboxylic acid-4-fluoro-benzylamide] registered a melting point of 160 °C.
Next, `O=C(NCc1ccc(F)cc1)C1(CCCCN2CCN(c3nc4ccccc4s3)CC2)c2ccccc2-c2ccccc21` [Example 59, 9-[4-(4-benzothiazol-2-yl-piperazin-1-yl)-butyl]-9H-fluorene-9-carboxylic acid-4-fluoro-benzylamide]: 160 °C.
Next, `Cn1c(N2CCN(CCCCC3(C(=O)NCc4ccc(F)cc4)c4ccccc4-c4ccccc43)CC2)nc2ccccc21` [Example 60, 9-{4-[4-(1-methyl-1H-benzimidazol-2-yl)-piperazin-1-yl]-butyl}-9H-fluorene-9-carboxylic acid-4-fluoro-benzylamide]: 55 °C; `CCn1c(N2CCN(CCCCC3(C(=O)NCc4ccc(F)cc4)c4ccccc4-c4ccccc43)CC2)nc2ccccc21` [Example 61, 9-{4-[4-(1-ethyl-1H-benzimidazol-2-yl)-piperazin-1-yl]-butyl}-9H-fluorene-9-carboxylic acid-4-fluoro-benzylamide]: 166 °C.
In turn, `Cn1c(N2CCN(CCCCC3(C(=O)NCc4ccc(F)cc4)c4ccccc4-c4ccccc43)CC2)nc2ccc(F)cc21` [Example 62, 9-{4-[4-(6-fluoro-1-methyl-1H-benzimidazol-2-yl)-piperazin-1-yl]-butyl}-9H-fluorene-9-carboxylic acid-4-fluoro-benzylamide] displayed a melting point of 43 °C.
In the case of `Cn1c(N2CCN(CCCCC3(C(=O)NCc4ccc(F)cc4)c4ccccc4-c4ccccc43)CC2)nc2cccnc21` [Example 63, 9-{4-[4-(3-methyl-3H-imidazo[4,5]-pyridin-2-yl)-piperazin-1-yl]-butyl}-9H-fluorene-9-carboxylic acid-4-fluoro-benzylamide], the melting point was 153 °C.
Consider `C[C@H]1CN(c2ccc3ccccc3n2)CCN1CCCCC1(C(=O)NCc2ccc(F)cc2)c2ccccc2-c2ccccc21` [Example 64, 9-{4-[(S)-2-methyl-4-quinolin-2-yl-piperazin-1-yl]-butyl}-9H-fluorene-9-carboxylic acid-4-fluoro-benzylamide], for which the melting point was found to be 124 °C.
As for `C[C@@H]1CN(c2ccc3ccccc3n2)C[C@H](C)N1CCCCC1(C(=O)NCc2ccc(F)cc2)c2ccccc2-c2ccccc21` [Example 65, 9-[4-(cis-2,6-dimethyl-4-quinolin-2-yl-piperazin-1-yl)butyl]-9H-fluorene-9-carboxylic acid-4-fluoro-benzylamide], the figure is 62 °C; as for `C[C@@H]1CN(c2ccc3c(Cl)cccc3n2)C[C@H](C)N1CCCCC1(C(=O)NCc2ccc(F)cc2)c2ccccc2-c2ccccc21` [Example 66, 9-{4-[4-(5-chloro-quinolin-2-yl)-cis-2,6-dimethyl-piperazin-1-yl]-butyl}-9H-fluorene-9-carboxylic acid-4-fluoro-benzylamide], 136 to 137 °C.
As to `C[C@@H]1CN(c2ncc3ccccc3n2)C[C@H](C)N1CCCCC1(C(=O)NCc2ccc(F)cc2)c2ccccc2-c2ccccc21` [Example 67, 9-[4-(cis-2,6-dimethyl-4-quinazoline-2-yl-piperazin-1-yl)-butyl]-9H-fluorene-9-carboxylic acid-4-fluoro-benzylamide], the melting point stood at 172 °C.
In turn, `C[C@@H]1CN(c2nc3ccccc3o2)C[C@H](C)N1CCCCC1(C(=O)NCc2ccc(F)cc2)c2ccccc2-c2ccccc21` [Example 69, 9-[4-(4-benzoxazol-2-yl-cis-2,6-dimethyl-piperazin-1-yl)-butyl]-9H-fluorene-9-carboxylic acid-4-fluoro-benzylamide] returned a melting point of 153 °C.
As for `C[C@@H]1CN(c2nc3ccccc3s2)C[C@H](C)N1CCCCC1(C(=O)NCc2ccc(F)cc2)c2ccccc2-c2ccccc21` [Example 70, 9-[4-(4-benzothiazol-2-yl-cis-2,6-dimethyl-piperazin-1-yl)-butyl]-9H-fluorene-9-carboxylic acid-4-fluoro-benzylamide], the figure is 171 °C.
Next, `COc1ccc(CNC(=O)C2(CCCCN3CCN(c4ccc5c(Cl)cccc5n4)CC3)c3ccccc3-c3ccccc32)cc1` [Example 73, 9-{4-[4-(5-chloro-quinolin-2-yl)-piperazin-1-yl]-butyl}-9H-fluorene-9-carboxylic acid-4-methoxy-benzylamide]: 135 to 136 °C; `COc1ccc(CNC(=O)C2(CCCCN3CCN(c4ncc5ccccc5n4)CC3)c3ccccc3-c3ccccc32)cc1` [Example 74, 9-[4-(4-quinazolin-2-yl-piperazin-1-yl)-butyl]-9H-fluorene-9-carboxylic acid-4-methoxy-benzylamide]: 143 to 144 °C; `COc1ccc(CNC(=O)C2(CCCCN3CCN(c4nc5ccccc5s4)CC3)c3ccccc3-c3ccccc32)cc1` [Example 76, 9-[4-(4-benzothiazol-2-yl-piperazin-1-yl)-butyl]-9H-fluorene-9-carboxylic acid-4-methoxy-benzylamide]: 145 °C.
Regarding `COc1cccc(CNC(=O)C2(CCCCN3CCN(c4ccc5ccccc5n4)CC3)c3ccccc3-c3ccccc32)c1` [Example 81, 9-[4-(4-quinolin-2-yl-piperazin-1-yl)-butyl]-9H-fluorene-9-carboxylic acid-3-methoxy-benzylamide], the melting point was in the range of 114 to 116 °C.
In turn, `COc1ccc(CNC(=O)C2(CCCCN3CCN(c4ccc5ccccc5n4)CC3)c3ccccc3-c3ccccc32)c(OC)c1` [Example 82, 9-[4-(4-quinolin-2-yl-piperazin-1-yl)-butyl]-9H-fluorene-9-carboxylic acid-2,4-dimethoxy-benzylamide] came in with a melting point of 44 °C.
Regarding `COc1ccc(CNC(=O)C2(CCCCN3CCN(c4ccc5ccccc5n4)CC3)c3ccccc3-c3ccccc32)cc1OC` [Example 83, 9-[4-(4-quinolin-2-yl-piperazin-1-yl)-butyl]-9H-fluorene-9-carboxylic acid-3,4-dimethoxy-benzylamide], the melting point came to 118 °C.
As for `O=C(NCc1ccc(F)cc1F)C1(CCCCN2CCN(c3ccc4ccccc4n3)CC2)c2ccccc2-c2ccccc21` [Example 84, 9-[4-(4-quinolin-2-yl-piperazin-1-yl)-butyl]-9H-fluorene-9-carboxylic acid-2,4-difluoro-benzylamide], the figure is 116 to 118 °C; as for `O=C(NCc1ccc(F)c(F)c1)C1(CCCCN2CCN(c3ccc4ccccc4n3)CC2)c2ccccc2-c2ccccc21` [Example 85, 9-[4-(4-quinolin-2-yl-piperazin-1-yl)-butyl]-9H-fluorene-9-carboxylic acid-3,4-difluoro-benzylamide], 141 to 143 °C.
`O=C(NCC(F)(F)C(F)(F)F)C1(CCCCN2CCN(c3ccc4ccccc4n3)CC2)c2ccccc2-c2ccccc21` [Example 86, 9-[4-(4-quinolin-2-yl-piperazin-1-yl)-butyl]-9H-fluorene-9-carboxylic acid-(2,2,3,3,3-pentafluoro-propyl)-amide] registered a melting point of 120 °C.
In turn, `Cn1c(N2CCN(CCCCC3(C(=O)NCC(F)(F)C(F)(F)F)c4ccccc4-c4ccccc43)CC2)nc2ccccc21` [Example 87, 9-{4-[4-(1-methyl-1H-benzimidazol-2-yl)-piperazin-1-yl]-butyl}-9H-fluorene-9-carboxylic acid-(2,2,3,3,3-pentafluoro-propyl)-amide] yielded a melting point of 120 °C.
Next, `O=C(NCc1ccncc1)C1(CCCCN2CCN(c3ccc4ccccc4n3)CC2)c2ccccc2-c2ccccc21` [Example 88, 9-[4-(4-quinolin-2-yl-piperazin-1-yl)-butyl]-9H-fluorene-9-carboxylic acid-(pyridin-4-ylmethyl)-amide]: 166 to 168 °C.
As for `O=C(NCc1cccs1)C1(CCCCN2CCN(c3ccc4ccccc4n3)CC2)c2ccccc2-c2ccccc21` [Example 90, 9-[4-(4-quinolin-2-yl-piperazin-1-yl)-butyl]-9H-fluorene-9-carboxylic acid-(thiophen-2-ylmethyl)-amide], the figure is 45 to 50 °C; as for `CCCNC(=O)C1(CCCCN2CCN(c3nc4ccccc4n3C)CC2)c2ccccc2-c2ccccc21` [Example 91, 9-{4-[4-(1-methyl-1H-benzimidazol-2-yl)-piperazin-1-yl]-butyl}-9H-fluorene-9-carboxylic acid propylamide], 126 °C; as for `O=C(NCCc1ccccc1)C1(CCCCN2CCN(c3ccc4ccccc4n3)CC2)c2ccccc2-c2ccccc21` [Example 92, 9-[4-(4-quinolin-2-yl-piperazin-1-yl)-butyl]-9H-fluorene-9-carboxylic acid-(phenethyl)-amide], 55 to 57 °C.
